Measurements from US11596591B2, “Manufacturing method for cosmetic composition of fucoidan and cosmetic composition comprising low molecular weight fucoidan using the same” (priority 2021, dated 2023).

Test system: mushroom tyrosinase
Test: in-vitro tyrosinase inhibition assay (substrate L-tyrosine)
Assay type: biochemical
Conditions: 200 μM, positive control
From the text: An in-vitro tyrosinase inhibition assay was used to determine whether the whitening ingredients were directly affecting the regulation of the tyrosinase activity (using tyrosine as a substrate). The ingredients with a whitening effect mainly have a mechanism of action that inhibits some processes in the melanin biosynthetic pathway in vivo, which is the initial process in which tyrosinase is involved in the most important process in the synthetic pathway. Most of the whitening ingredients inhibit the activity of tyrosinase and reduce the production of melanin in the skin, resulting in offering a skin whitening effect. […] (1) Test method: For an in-vitro tyrosinase inhibition test of the test substance, mozuku-derived fucoidan extract, the tyrosinase inhibitory ability was measured using an in-vitro tyrosinase inhibition assay. […] The tyrosinase inhibitory effect of the test substance was evaluated by measuring the absorbance of DOPAchrome produced from the substrate L-tyrosine by the enzymatic reaction of tyrosinase. […] A microplate reader system (SpectraMax® i3x Multi Mode Detection Platform Molecular Devices, USA) was used to measure the absorbance at 475 nm. […] As determined by the Student's t test, P<0.05 was considered statistically significant. The in-vitro tyrosinase inhibition activity against the substrate L-tyrosine was calculated according to the following equation: […] […]

`OC[C@H]1O[C@@H](Oc2ccc(O)cc2)[C@H](O)[C@@H](O)[C@@H]1O` [arbutin] was tested, and the “tyrosinase inhibition activity against L-tyrosine with respect to the negative control” value was 50.47±0.95%.
